# According to patent publication EP0506704B1, “USE OF ALKYL PHOSPHOLIPIDS AS ANTIVIRAL DRUGS, AS WELL AS NEW COMPOUNDS” (BOEHRINGER MANNHEIM GMBH, priority 1989, dated 1991):
# Test system: HIV
# Assay: Anti-HIV activity in cell culture: inhibition of HIV replication, virus in supernatant quantified by reinfection of human fetal lung cells
# Type: cell-based
# Details: Human immunodeficiency virus 1; chronically HIV-infected human fetal lung cells; concentration causing 50 % inhibition of virus replication
# Excerpt: Die Verbindungen der vorliegenden Erfindung weisen eine antivirale Wirksamkeit auf und können somit beispielsweise zur Behandlung von HIV-bedingten Krankheiten oder Infektionen eingesetzt werden. Der Nachweis der Anti-HIV-Wirksamkeit erfolgt in Zell- oder Gewebekulturen, wobei die direkte Hemmung der HIV-Replikation gemessen wird.
# Zunächst erfolgt eine Behandlung von HIV-infizierten humanen T-Lymphomzellen bzw. HIV-infizierten humanen fetalen Lungenzellen mit der zu untersuchenden Verbindung in Verdünnungsreihe. Anschließend erfolgt eine Quantifizierung der Virusmenge im Überstand durch Neuinfektion von humanen fetalen Lungenzellen. Die Abnahme der entstandenen HIV-positiven Zellkolonien gilt als direktes Maß für die antivirale Wirksamkeit der untersuchten Verbindung.
# In der folgenden Tabelle sind diejenigen Konzentrationen angegeben, die eine 50 %-ige Hemmung der Virusreplikation bewirken (IC₅₀-Werte).
row,SMILES,IC50 [µg/mL]
1,"CCCCCCCCCCCCSCC(CCCCCCCCCCC)COP(=O)([O-])OCC[N+](C)(C)C (stereo not drawn) [Beispiel 3, 2-Dodecylmercaptomethyl-tridecyl-1-phosphorsäure-monocholinester]",12
2,"CCCCCCCCCCCCOC(CCCCCCCCCCCC)COP(=O)([O-])OCC[N+](C)(C)C (stereo not drawn) [Beispiel 2, 2-Dodecyloxytetradecvl-1-phosphorsäure-monocholinester]",1
3,"CCCCCCCCCCCCSC(CCCCCCCCCCCC)COP(=O)([O-])OCC[N+](C)(C)C (stereo not drawn) [Beispiel 1, 2-Dodecylmercapto-tetradecyl-1-phosphorsäure-monocholinester]",30
